# Data reported in ChEMBL document CHEMBL4196001, “Design, semisynthesis, α-glucosidase inhibitory, cytotoxic, and antibacterial activities of p-terphenyl derivatives” (Eur J Med Chem, 2018).
# Structures can show the parent of a compound that is named as a salt. The source made the active and inactive calls. No cut-off for these calls is given here.
# Tests used:
# Alpha glucosidase [1] = biological target: T1, Alpha glucosidase (Homo sapiens, UniProt O43451+P10253+P14410+Q2M2H8); assay: Inhibition of human alpha-glucosidase expressed in Saccharomyces cerevisiae using p-nitrophenyl-alpha-D-glucopyranoside as substrate after 15 mins
# A549 [2] = assay: Cytotoxicity against human A549 cells at 10 uM by SRB assay; type: functional, cell-based
# Staphylococcus aureus = assay: Antibacterial activity against Staphylococcus aureus after 24 hrs by broth macrodilution method; type: functional
# HeLa [3] = assay: Cytotoxicity against human HeLa cells at 10 uM by SRB assay; type: functional, cell-based
# [4] = Cytotoxicity against human Chang cells at 10 uM by SRB assay; type: cell-based
# HepG2 [5] = assay: Cytotoxicity against human HepG2 cells at 10 uM by SRB assay; type: functional, cell-based
# [6] = Cytotoxicity against human Chang cells by SRB assay; type: cell-based
# Alpha glucosidase [7] = biological target: T1, Alpha glucosidase; assay: Inhibition of human alpha-glucosidase expressed in Saccharomyces cerevisiae at 10 uM using p-nitrophenyl-alpha-D-glucopyranoside as substrate after 15 mins by two-fold serial dilution method
# HeLa [8] = assay: Cytotoxicity against human HeLa cells by SRB assay; type: functional, cell-based
# HepG2 [9] = assay: Cytotoxicity against human HepG2 cells by SRB assay; type: functional, cell-based
# A549 [10] = assay: Cytotoxicity against human A549 cells by SRB assay; type: functional, cell-based
# MDA-MB-435 = assay: Cytotoxicity against human MDA-MB-435 cells; type: functional, cell-based
# alpha-glucosidase = assay: Therapeutic index, ratio of CC50 for human Chang cells to IC50 for human alpha-glucosidase expressed in Saccharomyces cerevisiae; type: toxicity; conditions: read-out: Ratio CC50/IC50
# Alpha glucosidase [11] = biological target: T1, Alpha glucosidase; assay: Non-competitive inhibition of human alpha-glucosidase expressed in Saccharomyces cerevisiae using p-nitrophenyl-alpha-D-glucopyranoside as substrate after 15 mins by Lineweaver-Burk plot analysis
# HeLa [12] = assay: Cytotoxicity against human HeLa cells after 3 days by hematoxylin-eosin staining-based assay; type: functional; conditions: 72 h, read-out: ID50 (the source's name)
SMILES,IC50 (Alpha glucosidase [1]),MIC (Staphylococcus aureus),inhibition (Alpha glucosidase [7]),Ki (Alpha glucosidase [11]),Activity (A549 [2]),Activity (HeLa [3]),Activity [4],Activity (HepG2 [5]),CC50 [6],IC50 (HeLa [8]),IC50 (HepG2 [9]),IC50 (A549 [10]),IC50 (MDA-MB-435),selectivity ratio (alpha-glucosidase),IC50 (HeLa [12])
COc1c(Br)c(-c2ccc(O)cc2)c(OC)c(O)c1-c1ccc(O)cc1,7.14 µM,1.56 µM,–,–,inactive,inactive,Non-Toxic,inactive,–,–,–,–,–,–,–
COc1cc(-c2ccc(OCC=C(C)C)cc2)c(OC)c(O)c1-c1ccc(OCC=C(C)C)cc1,–,–,inactive,–,inactive,–,–,–,31.1 µM,2.76 µM,4.1 µM,–,–,–,–
COc1cc(-c2ccc(O)cc2)c(OC)c(O)c1-c1ccc(OCc2ccccc2)cc1,12.5 µM,6.25 µM,–,–,inactive,inactive,–,inactive,23.1 µM,–,–,–,–,–,–
COc1cc(-c2ccc(OCc3ccccc3)cc2)c(OC)c(O)c1-c1ccc(O)cc1,12.5 µM,6.25 µM,–,–,inactive,inactive,–,inactive,39.1 µM,–,–,–,–,–,–
C#CCOc1ccc(-c2cc(OC)c(-c3ccc(OCC#C)cc3)c(OCC#C)c2OC)cc1,–,–,inactive,–,inactive,inactive,Non-Toxic,inactive,–,–,–,–,–,–,–
COc1cc(-c2ccc(O)cc2)c(OC)c(O)c1-c1ccc(O)c(O)c1,11.3 µM,–,–,–,inactive,inactive,Non-Toxic,inactive,–,–,–,–,< 20 µM,–,–
COc1cc(-c2ccc(O)cc2)c(O)c(O)c1-c1ccc(O)cc1,13.2 µM,–,–,–,inactive,inactive,–,inactive,224 µM,–,–,–,–,17,–
COc1cc(-c2ccc(OCCBr)cc2)c(OC)c(O)c1-c1ccc(OCCBr)cc1,–,–,inactive,–,inactive,inactive,Non-Toxic,inactive,–,–,–,–,–,–,–
C=CCOc1ccc(-c2cc(OC)c(-c3ccc(OCC=C)cc3)c(O)c2OC)cc1,–,–,inactive,–,inactive,inactive,Non-Toxic,inactive,–,–,–,–,–,–,–
COc1cc(-c2ccc(O)c(O)c2)c(OC)c(O)c1-c1ccc(O)c(O)c1,14 µM,–,–,–,inactive,inactive,Non-Toxic,inactive,–,–,–,–,< 20 µM,–,–
CCCOc1ccc(-c2cc(OC)c(-c3ccc(OCCC)cc3)c(O)c2OC)cc1,–,–,inactive,–,inactive,inactive,Non-Toxic,inactive,–,–,–,–,–,–,–
COc1cc(-c2ccc(OCC=C(C)C)cc2)c(OC)c(OCC=C(C)C)c1-c1ccc(OCC=C(C)C)cc1,–,–,inactive,–,inactive,inactive,Non-Toxic,inactive,–,–,–,–,–,–,–
COc1cccc2c1C(=O)c1c(O)c3c(c(O)c1C2=O)C[C@@](O)(C(=O)CO)C[C@@H]3O[C@H]1C[C@H](N)[C@H](O)[C@H](C)O1 [DOXORUBICIN HYDROCHLORIDE],–,–,–,–,–,–,–,–,–,–,–,0.16 µM,–,–,–
COc1cc(-c2ccccc2)c(OC)c(O)c1-c1ccc(O)cc1,108.2 µM,–,–,–,inactive,inactive,Non-Toxic,inactive,–,–,–,–,–,–,32 µg/mL
COc1cc(-c2ccc(O)cc2)c(OC)c(O)c1-c1ccc(O)c(CC=C(C)C)c1,25.7 µM,–,–,–,inactive,inactive,–,–,0.91 µM,–,2.74 µM,–,–,–,–
C=CCOc1ccc(-c2cc(OC)c(-c3ccc(OCC=C)cc3)c(OCC=C)c2OC)cc1,–,–,inactive,–,inactive,–,Non-Toxic,inactive,–,10.1 µM,–,–,–,–,–
CCCOc1ccc(-c2cc(OC)c(-c3ccc(OCCC)cc3)c(OCCC)c2OC)cc1,–,–,inactive,–,inactive,inactive,Non-Toxic,inactive,–,–,–,–,–,–,–

# Further lines, with some results ahead:
IC50 (Alpha glucosidase [1]),MIC (Staphylococcus aureus),inhibition (Alpha glucosidase [7]),Ki (Alpha glucosidase [11]),SMILES,Activity (A549 [2]),Activity (HeLa [3]),Activity [4],Activity (HepG2 [5]),CC50 [6],IC50 (HeLa [8]),IC50 (HepG2 [9]),IC50 (A549 [10]),IC50 (MDA-MB-435),selectivity ratio (alpha-glucosidase),IC50 (HeLa [12])
6.67 µM,–,–,–,COc1cc(-c2ccc(OCCBr)cc2)c(OC)c(OCCBr)c1-c1ccc(O)cc1,–,–,–,–,5.05 µM,1.58 µM,3.85 µM,3.06 µM,–,–,–
18.8 µM,6.25 µM,–,–,COc1cc(-c2ccc(O)cc2)c(OC)c(OCCBr)c1-c1ccc(O)cc1,inactive,inactive,–,inactive,39.1 µM,–,–,–,–,–,–
8.69 µM,–,–,–,CCCOc1ccc(-c2cc(OC)c(-c3ccc(O)cc3)c(OCCC)c2OC)cc1,–,–,–,–,0.87 µM,0.18 µM,0.49 µM,0.26 µM,–,–,–
32.2 µM,6.25 µM,–,–,C=CCOc1ccc(-c2c(OC)cc(-c3ccc(O)cc3)c(OC)c2O)cc1,–,–,–,–,0.57 µM,1.02 µM,0.95 µM,0.17 µM,–,–,–
8.77 µM,–,–,–,C=CCOc1ccc(-c2cc(OC)c(-c3ccc(O)cc3)c(OCC=C)c2OC)cc1,–,–,–,–,< 0.62 µM,0.15 µM,0.43 µM,0.25 µM,–,–,–
4.79 µM,–,–,1.5 µM,COc1cc(-c2ccc(O)cc2)c(OC)c(O)c1-c1ccc(O)cc1 [TERPHENYLLIN],inactive,–,–,inactive,6.95 µM,15.1 µM,–,–,–,–,10 µg/mL
20.1 µM,6.25 µM,–,–,COc1cc(-c2ccc(OCC=C(C)C)cc2)c(OC)c(O)c1-c1ccc(O)cc1,inactive,inactive,–,inactive,26.2 µM,–,–,–,–,–,–
23.4 µM,6.25 µM,–,–,COc1cc(-c2ccc(O)cc2)c(OC)c(OCC=C(C)C)c1-c1ccc(O)cc1,inactive,inactive,–,inactive,15.9 µM,–,–,–,–,–,–
53.1 µM,–,–,–,COc1cc(-c2ccc(OCC=C(C)C)cc2)c(OC)c(OCC=C(C)C)c1-c1ccc(O)cc1,–,–,–,–,7.34 µM,3.37 µM,5.26 µM,3.36 µM,–,–,–
19.3 µM,6.25 µM,–,–,CCCOc1c(OC)c(-c2ccc(O)cc2)cc(OC)c1-c1ccc(O)cc1,inactive,inactive,–,inactive,14.5 µM,–,–,–,–,–,–
8.58 µM,–,–,3.45 µM,COc1cc(-c2ccc(O)cc2)c(OC)c(OCCC(C)C)c1-c1ccc(O)cc1,inactive,inactive,Non-Toxic,inactive,–,–,–,–,–,–,–
12.3 µM,–,–,–,CCCOc1ccc(-c2c(OC)cc(-c3ccc(O)cc3)c(OC)c2O)cc1,–,inactive,Non-Toxic,inactive,–,–,–,10.3 µM,–,–,–
10 µM,–,–,–,CCCOc1ccc(-c2cc(OC)c(-c3ccc(O)cc3)c(O)c2OC)cc1,inactive,inactive,–,inactive,98.5 µM,–,–,–,–,10,–
19.1 µM,6.25 µM,–,–,COc1cc(-c2ccc(O)cc2)c(OC)c(OCc2ccccc2)c1-c1ccc(O)cc1,inactive,inactive,–,inactive,17.1 µM,–,–,–,–,–,–
20.1 µM,–,–,–,C#CCOc1ccc(-c2cc(OC)c(-c3ccc(O)cc3)c(OCC#C)c2OC)cc1,–,–,–,–,2.31 µM,0.68 µM,1.23 µM,0.79 µM,–,–,–
